# Measured values reported in patent US20110245284A1, “Alkoxy- and Alkylthio-Substituted Anilinopyrimidines” (Bayer CropScience AG, priority 2008, published 2011).
# System: Venturia inaequalis
# Test: Venturia test (apple) / protective
# Format: in vivo
# Details: 240 h, active compound concentration 100 ppm, evaluation 10 days after inoculation, read-out: efficacy
# Description: After the spray coating has dried on, the plants are inoculated with an aqueous conidia suspension of the apple scab pathogen Venturia inaequalis and then remain for 1 day in an incubation cabinet at about 20° C. and 100% relative atmospheric humidity.
row,SMILES,pest or weed control at 100 ppm [%]
1,CCSCc1cccc(Nc2ncc(Cl)c(NC(C)C)n2)c1 [Example 33],≥ 70
2,CCC[S+]([O-])c1cccc(Nc2ncc(C(F)(F)F)c(NC3CCC3)n2)c1 (stereo not shown) [Example 35],≥ 70
3,CCS(=O)(=O)c1cccc(Nc2ncc(Br)c(NC3CCC3)n2)c1 [Example 111],≥ 70
4,CCS(=O)(=O)c1cccc(Nc2ncc(Cl)c(NC3CC3)n2)c1 [Example 113],≥ 70
5,CCS(=O)(=O)c1cccc(Nc2ncc(C(F)(F)F)c(NC3CCC3)n2)c1 [Example 118],≥ 70
6,CC[S+]([O-])c1cccc(Nc2ncc(C(F)(F)F)c(NC3CCC3)n2)c1 (stereo not shown) [Example 119],≥ 70
7,CCC(c1cccc(Nc2ncc(Cl)c(NC3CC3)n2)c1)S(=O)(=O)CC (stereo not shown) [Example 120],≥ 70
8,CCCCS(=O)(=O)c1cccc(Nc2ncc(Br)c(NC3CC3)n2)c1 [Example 125],≥ 70
9,CCC(C)SC(C)c1cccc(Nc2ncc(Cl)c(NC3CC3)n2)c1 (stereo not shown) [Example 133],≥ 70
10,CCC(C)S(=O)(=O)C(C)c1cccc(Nc2ncc(Cl)c(NC3CC3)n2)c1 (stereo not shown) [Example 163],≥ 70
11,CCC(C)[S+]([O-])C(C)c1cccc(Nc2ncc(Cl)c(NC3CC3)n2)c1 (stereo not shown) [Example 164],≥ 70
12,CCCC[S+]([O-])c1cccc(Nc2ncc(Cl)c(NC3CCC3)n2)c1 (stereo not shown) [Example 171],≥ 70
13,CCC[S+]([O-])c1cccc(Nc2ncc(Cl)c(NC3CC3)n2)c1 (stereo not shown) [Example 205],≥ 70

# System: Alternaria solani
# Test: Alternaria test (tomato) / protective
# Format: in vivo
# Details: 72 h, active compound concentration 100 ppm, evaluation 3 days after inoculation, read-out: efficacy
# Description: The plants are then placed in an incubation cabinet at about 20° C. and 100% relative atmospheric humidity.
row,SMILES,pest or weed control at 100 ppm [%]
1,CCSCc1cccc(Nc2ncc(Cl)c(NC(C)C)n2)c1 [Example 33],≥ 70
2,CCC[S+]([O-])c1cccc(Nc2ncc(C(F)(F)F)c(NC3CCC3)n2)c1 (stereo not shown) [Example 35],≥ 70
3,CCS(=O)(=O)c1cccc(Nc2ncc(Br)c(NC3CCC3)n2)c1 [Example 111],≥ 70
4,CCS(=O)(=O)c1cccc(Nc2ncc(Cl)c(NC3CC3)n2)c1 [Example 113],≥ 70
5,CCS(=O)(=O)c1cccc(Nc2ncc(C(F)(F)F)c(NC3CCC3)n2)c1 [Example 118],≥ 70
6,CC[S+]([O-])c1cccc(Nc2ncc(C(F)(F)F)c(NC3CCC3)n2)c1 (stereo not shown) [Example 119],≥ 70
7,CCC(c1cccc(Nc2ncc(Cl)c(NC3CC3)n2)c1)S(=O)(=O)CC (stereo not shown) [Example 120],≥ 70
8,CCCCS(=O)(=O)c1cccc(Nc2ncc(Br)c(NC3CC3)n2)c1 [Example 125],≥ 70
9,CCC(C)SC(C)c1cccc(Nc2ncc(Cl)c(NC3CC3)n2)c1 (stereo not shown) [Example 133],≥ 70
10,CCC(C)S(=O)(=O)C(C)c1cccc(Nc2ncc(Cl)c(NC3CC3)n2)c1 (stereo not shown) [Example 163],≥ 70
11,CCC(C)[S+]([O-])C(C)c1cccc(Nc2ncc(Cl)c(NC3CC3)n2)c1 (stereo not shown) [Example 164],≥ 70
12,CCCC[S+]([O-])c1cccc(Nc2ncc(Cl)c(NC3CCC3)n2)c1 (stereo not shown) [Example 171],≥ 70
13,CCC[S+]([O-])c1cccc(Nc2ncc(Cl)c(NC3CC3)n2)c1 (stereo not shown) [Example 205],≥ 70

# System: Sphaerotheca fuliginea
# Test: Sphaerotheca test (cucumber) / protective
# Format: in vivo
# Details: Podosphaera fuliginea, 168 h, active compound concentration 500 ppm, evaluation 7 days after inoculation, read-out: efficacy
# Description: The plants are subsequently placed in a greenhouse at 70% relative atmospheric humidity and a temperature of 23° C.
row,SMILES,pest or weed control at 500 ppm [%]
1,CCSCc1cccc(Nc2ncc(Cl)c(NC(C)C)n2)c1 [Example 33],≥ 70
2,CCC[S+]([O-])c1cccc(Nc2ncc(C(F)(F)F)c(NC3CCC3)n2)c1 (stereo not shown) [Example 35],≥ 70
3,CCS(=O)(=O)c1cccc(Nc2ncc(Br)c(NC3CCC3)n2)c1 [Example 111],≥ 70
4,CCS(=O)(=O)c1cccc(Nc2ncc(Cl)c(NC3CC3)n2)c1 [Example 113],≥ 70
5,CCS(=O)(=O)c1cccc(Nc2ncc(C(F)(F)F)c(NC3CCC3)n2)c1 [Example 118],≥ 70
6,CC[S+]([O-])c1cccc(Nc2ncc(C(F)(F)F)c(NC3CCC3)n2)c1 (stereo not shown) [Example 119],≥ 70
7,CCC(c1cccc(Nc2ncc(Cl)c(NC3CC3)n2)c1)S(=O)(=O)CC (stereo not shown) [Example 120],≥ 70
8,CCC(C)SC(C)c1cccc(Nc2ncc(Cl)c(NC3CC3)n2)c1 (stereo not shown) [Example 133],≥ 70
9,CCC(C)S(=O)(=O)C(C)c1cccc(Nc2ncc(Cl)c(NC3CC3)n2)c1 (stereo not shown) [Example 163],≥ 70
10,CCC(C)[S+]([O-])C(C)c1cccc(Nc2ncc(Cl)c(NC3CC3)n2)c1 (stereo not shown) [Example 164],≥ 70
11,CCC[S+]([O-])c1cccc(Nc2ncc(Cl)c(NC3CC3)n2)c1 (stereo not shown) [Example 205],≥ 70

# System: Leptosphaeria nodorum
# Test: Leptosphaeria nodorum test (wheat) / protective
# Format: in vivo
# Details: Parastagonospora nodorum, active compound concentration 500 ppm, evaluation 7-9 days after inoculation, read-out: efficacy
# Description: Thereafter, the plants are placed in a greenhouse at 90% relative atmospheric humidity and a temperature of 22° C.
row,SMILES,pest or weed control at 500 ppm [%]
1,CCSCc1cccc(Nc2ncc(Cl)c(NC(C)C)n2)c1 [Example 33],≥ 70
2,CCC[S+]([O-])c1cccc(Nc2ncc(C(F)(F)F)c(NC3CCC3)n2)c1 (stereo not shown) [Example 35],≥ 70
3,CCS(=O)(=O)c1cccc(Nc2ncc(Br)c(NC3CCC3)n2)c1 [Example 111],≥ 70
4,CCS(=O)(=O)c1cccc(Nc2ncc(Cl)c(NC3CC3)n2)c1 [Example 113],≥ 70
5,CCS(=O)(=O)c1cccc(Nc2ncc(C(F)(F)F)c(NC3CCC3)n2)c1 [Example 118],≥ 70
6,CC[S+]([O-])c1cccc(Nc2ncc(C(F)(F)F)c(NC3CCC3)n2)c1 (stereo not shown) [Example 119],≥ 70
7,CCC(c1cccc(Nc2ncc(Cl)c(NC3CC3)n2)c1)S(=O)(=O)CC (stereo not shown) [Example 120],≥ 70
8,CCCCS(=O)(=O)c1cccc(Nc2ncc(Br)c(NC3CC3)n2)c1 [Example 125],≥ 70
9,CCC(C)SC(C)c1cccc(Nc2ncc(Cl)c(NC3CC3)n2)c1 (stereo not shown) [Example 133],≥ 70
10,CCC(C)S(=O)(=O)C(C)c1cccc(Nc2ncc(Cl)c(NC3CC3)n2)c1 (stereo not shown) [Example 163],≥ 70
11,CCC(C)[S+]([O-])C(C)c1cccc(Nc2ncc(Cl)c(NC3CC3)n2)c1 (stereo not shown) [Example 164],≥ 70
12,CCCC[S+]([O-])c1cccc(Nc2ncc(Cl)c(NC3CCC3)n2)c1 (stereo not shown) [Example 171],≥ 70
13,CCC[S+]([O-])c1cccc(Nc2ncc(Cl)c(NC3CC3)n2)c1 (stereo not shown) [Example 205],≥ 70

# System: Pyrenophora teres
# Test: Pyrenophora teres test (barley) / protective
# Format: in vivo
# Details: 192 h, active compound concentration 500 ppm, evaluation 8 days after inoculation, read-out: efficacy
# Description: After the spray coating has dried on, the plants are sprayed with a spore suspension of Pyrenophora teres. The plants remain in an incubation cabinet for 48 hours at 20° C. and 100% relative atmospheric humidity.
row,SMILES,pest or weed control at 500 ppm [%]
1,CCSCc1cccc(Nc2ncc(Cl)c(NC(C)C)n2)c1 [Example 33],≥ 70
2,CCS(=O)(=O)c1cccc(Nc2ncc(Cl)c(NC3CC3)n2)c1 [Example 113],≥ 70
3,CCS(=O)(=O)c1cccc(Nc2ncc(C(F)(F)F)c(NC3CCC3)n2)c1 [Example 118],≥ 70
4,CC[S+]([O-])c1cccc(Nc2ncc(C(F)(F)F)c(NC3CCC3)n2)c1 (stereo not shown) [Example 119],≥ 70
5,CCC(C)SC(C)c1cccc(Nc2ncc(Cl)c(NC3CC3)n2)c1 (stereo not shown) [Example 133],≥ 70
6,CCC(C)S(=O)(=O)C(C)c1cccc(Nc2ncc(Cl)c(NC3CC3)n2)c1 (stereo not shown) [Example 163],≥ 70
7,CCC(C)[S+]([O-])C(C)c1cccc(Nc2ncc(Cl)c(NC3CC3)n2)c1 (stereo not shown) [Example 164],≥ 70
8,CCC[S+]([O-])c1cccc(Nc2ncc(Cl)c(NC3CC3)n2)c1 (stereo not shown) [Example 205],≥ 70

# System: not listed separately
# Test: logP by LC-MS on reversed-phase columns (C 18), method [b], acidic range pH 2.7
# Format: physicochemical
# Details: pH 2.7, log p
# Description: (§1) The logP values were determined in accordance with EEC Directive 79/831 Annex V.A8 by HPLC (High Performance Liquid Chromatography) on reversed-phase columns (C 18), using the methods below:
# [b] The LC-MS determination in the acidic range is carried out at pH 2.7 using the mobile phases 0.1% aqueous formic acid and acetonitrile (contains 0.1% formic acid), linear gradient from 10% acetonitrile to 95% acetonitrile.
row,SMILES,chromatographic logP
1,CCSCc1cccc(Nc2ncc(Cl)c(NC(C)C)n2)c1 [Example 33],2.61
2,CCC[S+]([O-])c1cccc(Nc2ncc(C(F)(F)F)c(NC3CCC3)n2)c1 (stereo not shown) [Example 35],2.97
3,CCS(=O)(=O)c1cccc(Nc2ncc(Br)c(NC3CCC3)n2)c1 [Example 111],2.36
4,CCS(=O)(=O)c1cccc(Nc2ncc(Cl)c(NC3CC3)n2)c1 [Example 113],1.87
5,CCS(=O)(=O)c1cccc(Nc2ncc(C(F)(F)F)c(NC3CCC3)n2)c1 [Example 118],3.07
6,CC[S+]([O-])c1cccc(Nc2ncc(C(F)(F)F)c(NC3CCC3)n2)c1 (stereo not shown) [Example 119],2.61
7,CCC(c1cccc(Nc2ncc(Cl)c(NC3CC3)n2)c1)S(=O)(=O)CC (stereo not shown) [Example 120],1.94
8,CCCCS(=O)(=O)c1cccc(Nc2ncc(Br)c(NC3CC3)n2)c1 [Example 125],2.81
9,CCC(C)SC(C)c1cccc(Nc2ncc(Cl)c(NC3CC3)n2)c1 (stereo not shown) [Example 133],3.79
10,CCC(C)S(=O)(=O)C(C)c1cccc(Nc2ncc(Cl)c(NC3CC3)n2)c1 (stereo not shown) [Example 163],2.16
11,CCC(C)[S+]([O-])C(C)c1cccc(Nc2ncc(Cl)c(NC3CC3)n2)c1 (stereo not shown) [Example 164],2
12,CCCC[S+]([O-])c1cccc(Nc2ncc(Cl)c(NC3CCC3)n2)c1 (stereo not shown) [Example 171],2.48
13,CCC[S+]([O-])c1cccc(Nc2ncc(Cl)c(NC3CC3)n2)c1 (stereo not shown) [Example 205],1.8

# System: not listed separately
# Test: logP by LC-MS on reversed-phase columns (C 18), method [c], neutral range pH 7.8
# Format: physicochemical
# Details: pH 7.8
# Description: as §1
# [c] The LC-MS determination in the neutral range is carried out at pH 7.8 using the mobile phases 0.001 molar aqueous ammonium bicarbonate solution and acetonitrile, linear gradient from 10% acetonitrile to 95% acetonitrile.
row,SMILES,chromatographic logP
1,CCS(=O)(=O)c1cccc(Nc2ncc(Br)c(NC3CCC3)n2)c1 [Example 111],3.06
2,CCS(=O)(=O)c1cccc(Nc2ncc(Cl)c(NC3CC3)n2)c1 [Example 113],2.48
3,CCS(=O)(=O)c1cccc(Nc2ncc(C(F)(F)F)c(NC3CCC3)n2)c1 [Example 118],3.23
4,CC[S+]([O-])c1cccc(Nc2ncc(C(F)(F)F)c(NC3CCC3)n2)c1 (stereo not shown) [Example 119],2.81
5,CCC(c1cccc(Nc2ncc(Cl)c(NC3CC3)n2)c1)S(=O)(=O)CC (stereo not shown) [Example 120],2.83
6,CCCCS(=O)(=O)c1cccc(Nc2ncc(Br)c(NC3CC3)n2)c1 [Example 125],3.32
7,CCC(C)SC(C)c1cccc(Nc2ncc(Cl)c(NC3CC3)n2)c1 (stereo not shown) [Example 133],5.08
8,CCC(C)S(=O)(=O)C(C)c1cccc(Nc2ncc(Cl)c(NC3CC3)n2)c1 (stereo not shown) [Example 163],3.16
9,CCC(C)[S+]([O-])C(C)c1cccc(Nc2ncc(Cl)c(NC3CC3)n2)c1 (stereo not shown) [Example 164],2.79
10,CCCC[S+]([O-])c1cccc(Nc2ncc(Cl)c(NC3CCC3)n2)c1 (stereo not shown) [Example 171],3.31
11,CCC[S+]([O-])c1cccc(Nc2ncc(Cl)c(NC3CC3)n2)c1 (stereo not shown) [Example 205],2.47
